# Earlier results as cited in publication PMC7306898, “Concentration-Dependent Activity of Hydromethylthionine on Clinical Decline and Brain Atrophy in a Randomized Controlled Trial in Behavioral Variant Frontotemporal Dementia” (Journal of Alzheimer's Disease, 2020).
# Where two headings read alike, the source gives them in different places.
# What was measured:
# [1] = cited from earlier work; for Plasma Half-life, Mean: value in parentheses ref U.S. approved product labeling
# [2] = parameters: method as in Investigator's Brochure; details: coadministration of reduced leuco (LMT) form with food ref Investigator's Brochure; cited from earlier work
# [3] = system: serotonin transporter; parameters: method as in PMID 21542830; details: in vitro ref 73; cited from earlier work
# [4] = system: mitochondrial activity; parameters: method as in PMID 22419586, PMID 17928358; details: cited from earlier work
# [5] = system: TDP-43; parameters: method as in PMID 19560462; details: cell models ref 34; read-out: EC50, inhibition of aggregation of TDP-43; cited from earlier work
# [6] = system: male rats; parameters: method as in U.S. National Toxicology Program; details: pancreatic islet cell adenoma and adenoma or carcinoma ref U.S. National Toxicology Program; cited from earlier work
# [7] = system: mice; parameters: method as in U.S. National Toxicology Program; details: cited from earlier work
# [8] = system: subjects with a clinical diagnosis within the FTLD spectrum; parameters: method as in Investigator's Brochure; details: MTC 138 mg/day MT, cited from earlier work
# [9] = system: subjects with AD; parameters: method as in TRx-014-001; details: cited from earlier work
# [10] = system: subjects with mild or moderate AD; details: cited from earlier work
# [11] = ref U.S. approved product labeling
# [12] = single dose ref U.S. approved product labeling
# [13] = Biphasic ref U.S. approved product labeling
SMILES,"Plasma Half-life, range or single value [1, 11]",further results
"N[C@@H]1C[C@H]1c1ccccc1 (racemic) [Tr a n yl c yp r o mi n e, Tranylcypromine]",2.5 h,
Oc1ccc2c(c1)N=C(N1CCNCC1)c1cc(Cl)ccc1O2 [8-hydroxyamoxapine],30 h,
CN(C)CCC=C1c2ccccc2CCc2ccccc21 [Amitriptyline],9 to 25 h,
"Clc1ccc2c(c1)C(N1CCNCC1)=Nc1ccccc1O2 [Amo xapine, Amoxapine]",8 h,
CC(NC(C)(C)C)C(=O)c1cccc(Cl)c1 (centres unmarked) [Bupropion],12 to 30 h,"Plasma Half-life, Mean [1]: 21 h"
O=C1CC2(CCCC2)CC(=O)N1CCCCN1CCN(c2ncccn2)CC1 [Buspirone],,"Plasma Half-life [1, 12]: 2 to 3 h"
CN(C)CCCC1(c2ccc(F)cc2)OCc2cc(C#N)ccc21 (centres unmarked) [Citalopram],35 h,"increase in half-life reported in elderly [1, 11]: 30-50%"
CN(C)[C@@H](CCOc1cccc2ccccc12)c1ccccc1 [Dapoxetene],,"Plasma Half-life, initial [1, 13]: 1.5 h; Plasma Half-life, terminal [1, 13]: 20 h"
"CNCCC=C1c2ccccc2COc2ccccc21 [Des meth yldoxepin, Desmethyldoxepin]",28 to 52 h,
CNCCCN1c2ccccc2CCc2ccccc21 [Desipramine],12 to 27 h,
"CNCCCN1c2ccccc2CCc2ccc(Cl)cc21 [Desmeth ylclo mipramine, Desmethylclomipramine]",54 to 77 h,"Plasma Half-life, Mean [1]: 69 h"
"CN(C)CC(c1ccc(O)cc1)C1(O)CCCCC1 (centres unmarked) [Desven la fa xin e, Desvenlafaxine]",11 h,
CN(C)CC/C=C1\c2ccccc2CSc2ccccc21 [Dosulepin],19 to 33 h,"Plasma Half-life for “its metabolites” [1, 11]: 23 to 46 h"
CN(C)CCC=C1c2ccccc2COc2ccccc21 [Doxepin],15.3 h,
CC(NC(C)(C)C)C(O)c1cccc(Cl)c1 (centres unmarked) [Erythrohydrobupropion],23 to 43 h,"Plasma Half-life, Mean [1]: 33 h"
CN(C)CCC[C@@]1(c2ccc(F)cc2)OCc2cc(C#N)ccc21 [Escitalopram],27 to 32 h,"increase in half-life reported in elderly [1, 11]: 50%"
CNCCC(Oc1ccc(C(F)(F)F)cc1)c1ccccc1 (centres unmarked) [Fluoxetine],,Plasma Half-life ([1]; Acute ref U.S. approved product labeling): 24 to 72 h; Plasma Half-life ([1]; Chronic ref U.S. approved product labeling): 96 to 140 h
COCCCC/C(=N\OCCN)c1ccc(C(F)(F)F)cc1 [Fluvoxamine],15.6 h,
C[C@H]1NC(C)(C)CO[C@]1(O)c1cccc(Cl)c1 [Hydroxybupropion],15 to 25 h,"Plasma Half-life, Mean [1]: 20 h"
"CN(C)c1ccc2c(c1)Sc1cc(N(C)C)ccc1N2 [LMT, leuco-methylthioninium]",,lowering of peak concentrations with food [2]: 8%
"CN(C)c1ccc2nc3ccc(=[N+](C)C)cc-3sc2c1 [MT, methylthioninium]",,IC50 [3]: 1200 nM; concentrations at which mitochondrial activity is enhanced [4]: 10 to 100 nM; EC50 [5]: 50 nM
"CN(C)c1ccc2nc3ccc(=[N+](C)C)cc-3sc2c1 [MTC, methylthioninium chloride]",,"carcinogenic activity [6]: som e evi dence of carcino genic; carcinogenic activity ([7]; female mice, malignant lymphoma ref U.S. National Toxicology Program): equi vocal eviden ce of; carcinogenic activity ([7]; male mice, carcinoma and adenoma or carcinoma in the small intestine ref U.S. National Toxicology Program): some evidenc e of car cinogeni c activit y; MMSE scores, mean above Baseline ([8]; 12 months ref Investigator's Brochure): 1.6 units; ACE-R scores improved by a mean (mean ± SEM) ([8]; 12 months, 7 subjects, LOCF ref Investigator's Brochure): 4.5 ± 2.4 units; methemoglobin, highest value observed ([9]; Phase 2 study ref TRx-014-001): 8%; Diarrhea and related adverse events ([9]; highest dose, 228 mg MT/day ref TRx-014-001): 48%; discontinuation due to urinary adverse events ([9]; including urinary discoloration and staining ref TRx-014-001): 6%; discontinuation due to diarrhea and related adverse events, overall ([9]; ref TRx-014-001): 16%; mean methemoglobin levels ([9]; ref TRx-014-001): below 3.5%; subjects discontinued due to vomiting ([9]; ref TRx-014-001): 3%; methemoglobin, mean overall ([9]; those treated with MTC ref TRx-014-001): 0.8%; clinically effective dose available ([10]; 100 mg MTC capsules twice or three times daily, nominal doses 152-228 mg/day ref Baddeley et al., 2015, Wischik et al.): 72 to 109 mg/day; minimum effective dose in AD ([10]; placebo-controlled dose-finding Phase II trial ref 47): 138 mg/day"
CNCCCC12CCC(c3ccccc31)c1ccccc12 [Maprotiline],51 h,

SMILES,"Plasma Half-life, range or single value [1, 11]",further results
CCN(CC)C(=O)C1(c2ccccc2)CC1CN (centres unmarked) [Milnacipran],6 to 8 h,
O=C(NCCN1CCOCC1)c1ccc(Cl)cc1 [Moclobemide],1 to 2 h,
"N[C@H]1CC[C@@H](c2ccc(Cl)c(Cl)c2)c2ccccc21 [N-desmethyls ertraline, N-desmethylsertraline]",62 to 104 h,
CCc1nn(CCCN2CCN(c3cccc(Cl)c3)CC2)c(=O)n1CCOc1ccccc1 [Nefazodone],2 to 4 h,
CNCCC=C1c2ccccc2COc2ccccc21 [Nordoxepin],31 h,
NCCC(Oc1ccc(C(F)(F)F)cc1)c1ccccc1 (centres unmarked) [Norfluoxetine],,"Plasma Half-life, Range [1, 11]: 96 to 384 h; Plasma Half-life, Mean [1]: 223 h"
CNCCC=C1c2ccccc2CCc2ccccc21 [Nortriptyline],16 to 93 h,
"CN(C)CC(c1ccc(O)cc1)C1(O)CCCCC1 (centres unmarked) [O-desmeth ylvenlafaxine, O-desmethylvenlafaxine]",9 to 13 h,
"Fc1ccc([C@@H]2CCNC[C@H]2COc2ccc3c(c2)OCO3)cc1 [P aroxetine, Paroxetine]",21 h,
"CNCCCC1c2ccccc2C=Cc2ccccc21 [P rotriptyline, Protriptyline]",55 to 198 h,
NNCCc1ccccc1 [Phenelzine],,"Plasma Half-life [1, 12]: 11.6 h"
"C#CCNC(C)Cc1ccccc1 (stereo not drawn) [R(-)-N -desmeth ylselegiline, R(-)-N-desmethylselegiline]",18 to 25 h,
CN[C@H](C)Cc1ccccc1 [R(-)-methamphetamine],18 to 25 h,
C#CCN(C)[C@H](C)Cc1ccccc1 [Selegiline],10 h,
CN[C@H]1CC[C@@H](c2ccc(Cl)c(Cl)c2)c2ccccc21 [Sertraline],26 h,
C[C@H](NC(C)(C)C)[C@@H](O)c1cccc(Cl)c1 [Threohydrobupropion],24 to 50 h,"Plasma Half-life, Mean [1]: 37 h"
"CC(CN(C)C)CN1c2ccccc2CCc2ccccc21 (centres unmarked) [Tr i mi p r a mi n e, Trimipramine]",11 to 23 h,
O=c1n(CCCN2CCN(c3cccc(Cl)c3)CC2)nc2ccccn12 [Trazodone],,"Plasma Half-life [1, 12]: 10 h"
"COc1ccc(C(CN(C)C)C2(O)CCCCC2)cc1 (centres unmarked) [V enlafaxine, Venlafaxine]",3 to 7 h,
"N#Cc1ccc2[nH]cc(CCCCN3CCN(c4ccc5oc(C(N)=O)cc5c4)CC3)c2c1 [V ilazod on e, Vilazodone]",25 h,
CCN(CC)C(=O)[C@]1(c2ccccc2)C[C@@H]1CN [d-milnacipran],8 to 10 h,
CCN(CC)C(=O)[C@@]1(c2ccccc2)C[C@H]1CN [l-enatiomer],4 to 6 h,
